Source: patent US12528788B2, “Pesticidally active benzene- and azine-amide compounds” (SYNGENTA CROP PROTECTION AG, priority 2018, dated 2026)

Assays:
Assay type in all cases: in vivo
Euschistus heros = experiment: Example B2: Euschistus heros (neotropical brown stink bug), soybean leaves sprayed, N2 nymphs; details: 120 h, application rate of 200 ppm, 5 days after infestation, N2 nymphs on soybean leaves, read-out: control in at least one of the two categories (mortality or growth inhibition)
Protocol: Example B2: Euschistus heros (Neotropical Brown Stink Bug)
Soybean leaves on agar in 24-well microtiter plates were sprayed with aqueous test solutions prepared from 10′000 ppm DMSO stock solutions. After drying the leaves were infested with N2 nymphs. The samples were assessed for mortality and growth inhibition in comparison to untreated samples 5 days after infestation.

Plutella xylostella [1] = experiment: Example B5: Plutella xylostella (diamond back moth), artificial diet, 24-well, eggs; details: 192 h, application rate of 200 ppm, 8 days after infestation, read-out: control in at least one of the two categories (mortality or growth inhibition)
Protocol: Example B5: Plutella xylostella (Diamond Back Moth)
24-well microtiter plates with artificial diet were treated with aqueous test solutions prepared from 10′000 ppm DMSO stock solutions by pipetting. After drying, Plutella eggs were pipetted through a plastic stencil onto a gel blotting paper and the plate was closed with it. The samples were assessed for mortality and growth inhibition in comparison to untreated samples 8 days after infestation.

Spodoptera littoralis [2] = experiment: Example B9: Spodoptera littoralis (Egyptian cotton leaf worm), cotton leaf discs sprayed, L1 larvae; details: foliar, 72 h, application rate of 200 ppm, 3 days after infestation, read-out: control in at least one of the three categories (mortality, anti-feedant effect or growth inhibition)
Chilo suppressalis = experiment: Example B4: Chilo suppressalis (striped rice stemborer), artificial diet, L2 larvae; details: 144 h, application rate of 200 ppm, 6 days after infestation, read-out: control in at least one of the three categories (mortality, anti-feedant effect or growth inhibition)
Protocol: Example B4: Chilo suppressalis (Striped Rice Stemborer)
24-well microtiter plates with artificial diet were treated with aqueous test solutions prepared from 10′000 ppm DMSO stock solutions by pipetting. After drying, the plates were infested with L2 larvae (6-8 per well). The samples were assessed for mortality, anti-feeding effect, and growth inhibition in comparison to untreated samples 6 days after infestation. Control of Chilo suppressalis by a test sample is given when at least one of the categories mortality, anti-feedant effect, and growth inhibition is higher than the untreated sample.

Myzus persicae [3] = experiment: Example B8: Myzus persicae (green peach aphid) intrinsic activity; details: 120 h, test rate of 12 ppm, 5 days after infestation, sucrose solution
Text: Example B8: Myzus persicae (Green Peach Aphid). Intrinsic Activity
Test compounds prepared from 10′000 ppm DMSO stock solutions were applied by pipette into 24-well microtiter plates and mixed with sucrose solution. The plates were closed with a stretched Parafilm. A plastic stencil with 24 holes was placed onto the plate and infested pea seedlings were placed directly on the Parafilm. The infested plate was closed with a gel blotting paper and another plastic stencil and then turned upside down. The samples were assessed for mortality 5 days after infestation.

Diabrotica balteata = experiment: Example B1: Diabrotica balteata (corn root worm), maize sprouts sprayed, L2 larvae; details: 96 h, application rate of 200 ppm, 4 days after infestation, L2 larvae on maize sprouts, read-out: control in at least one of the two categories (mortality or growth inhibition)
Protocol: Example B1: Diabrotica balteata (Corn Root Worm)
Maize sprouts placed onto an agar layer in 24-well microtiter plates were treated with aqueous test solutions prepared from 10′000 ppm DMSO stock solutions by spraying. After drying, the plates were infested with L2 larvae (6 to 10 per well). The samples were assessed for mortality and growth inhibition in comparison to untreated samples 4 days after infestation.

Myzus persicae [4] = experiment: Example B13: Myzus persicae (green peach aphid), 96-well sucrose solution; details: 120 h, application rate of 50 ppm, 5 days after infestation
Text: Example B13: Myzus persicae (Green Peach Aphid)
Test compounds prepared from 10′000 ppm DMSO stock solutions were applied by a liquid handling robot into 96-well microtiter plates and mixed with a sucrose solution. Parafilm was stretched over the 96-well microtiter plate and a plastic stencil with 96 holes was placed onto the plate. Aphids were sieved into the wells directly onto the Parafilm. The infested plates were closed with a gel blotting card and a second plastic stencil and then turned upside down. The samples were assessed for mortality 5 days after infestation.

Myzus persicae [5] = experiment: Example B7: Myzus persicae (green peach aphid) systemic activity; details: 144 h, test rate of 24 ppm, 6 days after placing seedlings into test solutions, pea seedlings
Protocol: Example B7: Myzus persicae (Green Peach Aphid) Systemic Activity
Roots of pea seedlings infested with an aphid population of mixed ages were placed directly into aqueous test solutions prepared from 10′000 DMSO stock solutions. The samples were assessed for mortality 6 days after placing seedlings into test solutions.

Plutella xylostella [6] = experiment: Example B14: Plutella xylostella (diamondback moth), 96-well artificial diet; details: 216 h, application rate of 500 ppm, 9 days after infestation
Protocol: Example B14: Plutella xylostella (Diamondback Moth)
96-well microtiter plates containing artificial diet were treated with aqueous test solutions, prepared from 10′000 ppm DMSO stock solutions, by a liquid handling robot. After drying, eggs (˜30 per well) were infested onto a netted lid which was suspended above the diet. The eggs hatch and L1 larvae move down to the diet. The samples were assessed for mortality 9 days after infestation.

Spodoptera littoralis [7] = experiment: Example B10: Spodoptera littoralis (Egyptian cotton leaf worm), uptake by lettuce roots from agar; details: 144 h, test rate of 12.5 ppm, 6 days after infestation, lettuce grown on treated agar, read-out: control in at least one of the three categories (mortality, anti-feeding, or growth inhibition)
Text: Example B10: Spodoptera littoralis (Egyptian Cotton Leaf Worm)
Test compounds were applied by pipette from 10′000 ppm DMSO stock solutions into 24-well plates and mixed with agar. Lettuce seeds were placed onto the agar and the multi well plate was closed by another plate which contained also agar. After 7 days the compound was absorbed by the roots and the lettuce grew into the lid plate. The lettuce leaves were then cut off into the lid plate. Spodoptera eggs were pipetted through a plastic stencil onto a humid gel blotting paper and the lid plate was closed with it. The samples were assessed for mortality, anti-feedant effect and growth inhibition in comparison to untreated samples 6 days after infestation.

Tetranychus urticae = experiment: Example B11: Tetranychus urticae (two-spotted spider mite) feeding/contact activity; details: foliar, 192 h, application rate of 200 ppm, 8 days after infestation, bean leaf discs, mixed population (mobile stages)
Protocol: Example B11: Tetranychus urticae (Two-Spotted Spider Mite): Feeding/Contact Activity
Bean leaf discs on agar in 24-well microtiter plates were sprayed with aqueous test solutions prepared from 10′000 ppm DMSO stock solutions. After drying the leaf discs were infested with a mite population of mixed ages. The samples were assessed for mortality on mixed population (mobile stages) 8 days after infestation.

Myzus persicae [8] = experiment: Example B6: Myzus persicae (green peach aphid) feeding/contact activity; details: foliar, 144 h, application rate of 200 ppm, 6 days after infestation, sunflower leaf discs
Protocol: Example B6: Myzus persicae (Green Peach Aphid) Feeding/Contact Activity
Sunflower leaf discs were placed onto agar in a 24-well microtiter plate and sprayed with aqueous test solutions prepared from 10′000 ppm DMSO stock solutions. After drying, the leaf discs were infested with an aphid population of mixed ages. The samples were assessed for mortality 6 days after infestation.

CC(NC(=O)c1cc(C(F)(F)F)cc(C(F)(F)F)c1)c1nccnc1-c1ncccn1 (stereo not drawn) [Compound P12, N-[1-(3-pyrimidin-2-ylpyrazin-2-yl)ethyl]-3,5-bis(trifluoromethyl)benzamide]
≥ 80%: percent control (mortality or growth inhibition) at 200 ppm (Euschistus heros) | percent control (mortality or growth inhibition) at 200 ppm (Plutella xylostella [1]) | percent control (mortality, anti-feedant effect or growth inhibition) at 200 ppm (Spodoptera littoralis [2]) | percent control (mortality, anti-feedant effect or growth inhibition) at 200 ppm (Chilo suppressalis) | mortality at 12 ppm (Myzus persicae [3]) | percent control (mortality or growth inhibition) at 200 ppm (Diabrotica balteata)

CC(NC(=O)c1cc(OCC(F)F)cc(C(F)(F)F)c1)c1nccnc1-c1ncccn1 (stereo not drawn) [Compound P14, 3-(2,2-difluoroethoxy)-N-[1-(3-pyrimidin-2-ylpyrazin-2-yl)ethyl]-5-(trifluoromethyl)benzamide]
≥ 80%: mortality at 50 ppm (Myzus persicae [4]) | percent control (mortality or growth inhibition) at 200 ppm (Euschistus heros) | mortality at 24 ppm (Myzus persicae [5]) | percent control (mortality or growth inhibition) at 200 ppm (Plutella xylostella [1]) | mortality at 500 ppm (Plutella xylostella [6]) | percent control (mortality, anti-feedant effect or growth inhibition) at 200 ppm (Spodoptera littoralis [2]) | percent control (mortality, anti-feedant effect or growth inhibition) at 200 ppm (Chilo suppressalis) | mortality at 12 ppm (Myzus persicae [3]) | percent control (mortality, anti-feeding or growth inhibition) at 12.5 ppm (Spodoptera littoralis [7])

CC(NC(=O)c1cc(C(F)(F)F)nc(C(F)(F)F)c1)c1nccnc1-c1ncccn1 (stereo not drawn) [Compound P15, N-[1-(3-pyrimidin-2-ylpyrazin-2-yl)ethyl]-2,6-bis(trifluoromethyl)pyridine-4-carboxamide]
≥ 80%: mortality at 50 ppm (Myzus persicae [4]) | percent control (mortality or growth inhibition) at 200 ppm (Euschistus heros) | percent control (mortality or growth inhibition) at 200 ppm (Plutella xylostella [1]) | mortality at 500 ppm (Plutella xylostella [6]) | percent control (mortality, anti-feedant effect or growth inhibition) at 200 ppm (Spodoptera littoralis [2]) | percent control (mortality, anti-feedant effect or growth inhibition) at 200 ppm (Chilo suppressalis) | mortality at 12 ppm (Myzus persicae [3]) | percent control (mortality or growth inhibition) at 200 ppm (Diabrotica balteata)

CC(NC(=O)c1cc(Cl)cc(OC(F)(F)F)c1)c1nccnc1-c1ncccn1 (stereo not drawn) [Compound P16, 3-chloro-N-[1-(3-pyrimidin-2-ylpyrazin-2-yl)ethyl]-5-(trifluoromethoxy)benzamide]
≥ 80%: mortality at 50 ppm (Myzus persicae [4]) | percent control (mortality or growth inhibition) at 200 ppm (Euschistus heros) | percent control (mortality or growth inhibition) at 200 ppm (Plutella xylostella [1]) | mortality at 500 ppm (Plutella xylostella [6]) | percent control (mortality, anti-feedant effect or growth inhibition) at 200 ppm (Spodoptera littoralis [2]) | percent control (mortality, anti-feedant effect or growth inhibition) at 200 ppm (Chilo suppressalis) | mortality at 12 ppm (Myzus persicae [3]) | percent control (mortality, anti-feeding or growth inhibition) at 12.5 ppm (Spodoptera littoralis [7]) | percent control (mortality or growth inhibition) at 200 ppm (Diabrotica balteata)

CC(NC(=O)c1cc(OCC(F)(F)F)cc(C(F)(F)F)c1)c1nccnc1-c1ncccn1 (stereo not drawn) [Compound P17, N-[1-(3-pyrimidin-2-ylpyrazin-2-yl)ethyl]-3-(2,2,2-trifluoroethoxy)-5-(trifluoromethyl)benzamide]
≥ 80%: mortality at 50 ppm (Myzus persicae [4]) | percent control (mortality or growth inhibition) at 200 ppm (Euschistus heros) | percent control (mortality or growth inhibition) at 200 ppm (Plutella xylostella [1]) | mortality at 500 ppm (Plutella xylostella [6]) | percent control (mortality, anti-feedant effect or growth inhibition) at 200 ppm (Spodoptera littoralis [2]) | percent control (mortality, anti-feedant effect or growth inhibition) at 200 ppm (Chilo suppressalis) | mortality at 12 ppm (Myzus persicae [3])

CC(NC(=O)c1cc(C(F)(F)F)cc(C(F)(F)F)c1)c1nccnc1-c1ccc(F)cn1 (stereo not drawn) [Compound P18, N-[1-[3-(5-fluoro-2-pyridyl)pyrazin-2-yl]ethyl]-3,5-bis(trifluoromethyl)benzamide]
≥ 80%: mortality at 50 ppm (Myzus persicae [4]) | mortality at 200 ppm (Tetranychus urticae) | mortality at 500 ppm (Plutella xylostella [6]) | percent control (mortality, anti-feedant effect or growth inhibition) at 200 ppm (Spodoptera littoralis [2]) | percent control (mortality, anti-feedant effect or growth inhibition) at 200 ppm (Chilo suppressalis) | percent control (mortality or growth inhibition) at 200 ppm (Diabrotica balteata)

CC(NC(=O)c1cc(Br)cc(C(F)(F)F)c1)c1nccnc1-c1ncccn1 (stereo not drawn) [Compound P20, 3-bromo-N-[1-(3-pyrimidin-2-ylpyrazin-2-yl)ethyl]-5-(trifluoromethyl)benzamide]
≥ 80%: mortality at 50 ppm (Myzus persicae [4]) | percent control (mortality or growth inhibition) at 200 ppm (Euschistus heros) | percent control (mortality or growth inhibition) at 200 ppm (Plutella xylostella [1]) | mortality at 500 ppm (Plutella xylostella [6]) | percent control (mortality, anti-feedant effect or growth inhibition) at 200 ppm (Spodoptera littoralis [2]) | percent control (mortality, anti-feedant effect or growth inhibition) at 200 ppm (Chilo suppressalis) | mortality at 12 ppm (Myzus persicae [3]) | percent control (mortality, anti-feeding or growth inhibition) at 12.5 ppm (Spodoptera littoralis [7]) | percent control (mortality or growth inhibition) at 200 ppm (Diabrotica balteata)

CC(NC(=O)c1cc(Cl)cc(C(F)(F)F)c1)c1nccnc1-c1ncccn1 (stereo not drawn) [Compound P21, 3-chloro-N-[1-(3-pyrimidin-2-ylpyrazin-2-yl)ethyl]-5-(trifluoromethyl)benzamide]
≥ 80%: mortality at 50 ppm (Myzus persicae [4]) | percent control (mortality or growth inhibition) at 200 ppm (Euschistus heros) | percent control (mortality or growth inhibition) at 200 ppm (Plutella xylostella [1]) | mortality at 500 ppm (Plutella xylostella [6]) | percent control (mortality, anti-feedant effect or growth inhibition) at 200 ppm (Spodoptera littoralis [2]) | percent control (mortality, anti-feedant effect or growth inhibition) at 200 ppm (Chilo suppressalis) | mortality at 12 ppm (Myzus persicae [3]) | percent control (mortality, anti-feeding or growth inhibition) at 12.5 ppm (Spodoptera littoralis [7]) | percent control (mortality or growth inhibition) at 200 ppm (Diabrotica balteata)

CC(NC(=O)c1cc(C(F)F)cc(C(F)(F)F)c1)c1nccnc1-c1ncccn1 (stereo not drawn) [Compound P22, 3-(difluoromethyl)-N-[1-(3-pyrimidin-2-ylpyrazin-2-yl)ethyl]-5-(trifluoromethyl)benzamide]
≥ 80%: mortality at 50 ppm (Myzus persicae [4]) | percent control (mortality or growth inhibition) at 200 ppm (Euschistus heros) | mortality at 24 ppm (Myzus persicae [5]) | percent control (mortality or growth inhibition) at 200 ppm (Plutella xylostella [1]) | mortality at 500 ppm (Plutella xylostella [6]) | percent control (mortality, anti-feedant effect or growth inhibition) at 200 ppm (Spodoptera littoralis [2]) | percent control (mortality, anti-feedant effect or growth inhibition) at 200 ppm (Chilo suppressalis) | mortality at 12 ppm (Myzus persicae [3]) | percent control (mortality, anti-feeding or growth inhibition) at 12.5 ppm (Spodoptera littoralis [7]) | percent control (mortality or growth inhibition) at 200 ppm (Diabrotica balteata)

CC(c1nccnc1-c1ncccn1)N(CC1CC1)C(=O)c1cc(OC(F)F)cc(C(F)(F)F)c1 (stereo not drawn) [Compound P24, N-(cyclopropylmethyl)-3-(difluoromethoxy)-N-[1-(3-pyrimidin-2-ylpyrazin-2-yl)ethyl]-5-(trifluoromethyl)benzamide]
≥ 80%: mortality at 50 ppm (Myzus persicae [4]) | mortality at 200 ppm (Tetranychus urticae) | percent control (mortality or growth inhibition) at 200 ppm (Plutella xylostella [1]) | percent control (mortality, anti-feedant effect or growth inhibition) at 200 ppm (Spodoptera littoralis [2]) | percent control (mortality, anti-feedant effect or growth inhibition) at 200 ppm (Chilo suppressalis) | mortality at 12 ppm (Myzus persicae [3]) | percent control (mortality or growth inhibition) at 200 ppm (Diabrotica balteata) | mortality at 200 ppm (Myzus persicae [8])
